According to patent US12371429B2, “Antibiotic resistance-modifying tricyclic heteroaryl compounds and uses thereof” (Recreo Pharmaceuticals LLC, priority 2018, dated 2025):
In brackets after ≈: the same amount, converted by molar mass. Where two headings read alike, the source gives them in different places.

What was measured:
[1] = test system: MRSA strain BAA-44; test: MIC determination, broth microdilution; assay type: cell-based, Staphylococcus aureus
Description: (§1) Bacterial strains representing pathogenic species of clinical concern, the so called ESKAPE pathogens, were selected for MIC studies using compounds A and B. The results are shown in Table A. These species are from the families or genera Enterococcus, Staphylococcus, Klebsiella, Acinetobacter, Pseudomonas, and Enterobacteriaceae. Specifically, Enterococcus faecium HM-204 and HM-460, Staphylococcus aureus strains NRS384 and COL, Klebsiella pneumoniae strains NR-48976 and NR-48977, Acinetobacter baumannii strains NR-17783 and NR-19299, Pseudomonas aeruginosa strain NR-48982 and Salmonella enterica strains NR-22067 and NR-22068 were purchased from BEI resources. Escherichia coli strain ATCC 25922, and the Staphylococcus aureus (S. aureus) strains ATCC 25923 (MSSA) and ATCC BAA-44 (MRSA) were purchased from the American Type Culture Collection (ATCC).
(§2) General Procedure for Minimal inhibitory concentration (MIC) determination. The minimal inhibitory concentrations (MICS) of antimicrobial compounds A, B, and C were determined by the broth microdilution method detailed in the Clinical and Laboratory Standards Institute handbook (Cockerill and Clinical and Laboratory Standards Institute, Methods for Dilution Antimicrobial Susceptibility Tests for Bacteria That Grow Aerobically). All antimicrobial compounds were purchased from Sigma-Aldrich. The growth media used for all MIC experiments, except those for Enterococcus faecium, was Mueller Hinton Broth (MHB) purchased from HIMEDIA through VWR (cat: 95039-356). For experiments using Enterococcus faecium, the growth and susceptibility medium was BD Bacto™ Brain Heart Infusion (BHI) Broth purchased from VWR (cat: 90003-040). USA Scientific CytoOne 96-well Clear Tissue Culture assay plates (cat: CC7682-7596) were used for all MIC and MRC experiments. MIC assay plates were prepared by diluting the antibiotic to be tested in a 2-fold series down the assay plate. A total of 8 concentrations of each compound were tested in triplicate. Compounds were prepared in 180 μL at 2× the intended final concentrations in MHB or BHI and 2% DMSO.
(§3) The bacterial inoculum was prepared by selecting 5-7 colonies from an agar plate to make a day culture in BHI of the bacterial species to be assayed. This was grown at 37° C. for 2-4 hours. After having reached the mid-logarithmic growth phase (OD600 0.15-0.4), the day culture was diluted in the appropriate assay medium (MHB or BHI) to OD600 0.002. 100 μL of this inoculum was added to each experimental well of the 96-well assay plate resulting in an additional two-fold dilution of the bacterial culture and an initial OD600 of 0.001 in the assay plate, a final volume of 200 μL and the intended compound concentrations in 1% DMSO. MIC assay plates were then incubated at 37° C. with shaking for 18 hours.
(§4) The MICs were determined as defined in the Clinical and Laboratory Standards Institute handbook. After overnight growth, Plates were read by eye and 600 nm absorbance read using a BioTek Epoch2 Microplate Spectrophotometer (BioTek).

[2] = test system: MRSA strain NRS-384; test: Antibiotic MICs in the presence of Compound C; assay type: cell-based, Staphylococcus aureus; conditions: MRSA NRS-384; in the presence of 5 mg/L Compound C
Method: [The source words this procedure for another variant and reports this variant under the same test.] as §2, §3, §4
(§5) Determination of Antibiotic MICs in the Presence of Compound C against MRSA and MSSA. Methicillin-resistant S. aureus (MRSA) strain ATCC BAA-44 and the methicillin-sensitive S. aureus (MSSA) strain ATCC 25923 were used to determine the MIC values of various antimicrobial compounds in the presence of 5 μg/mL Compound C. […] The test antibiotics were then diluted into assay plates as described earlier. The final concentration of Compound C after inoculation with BAA-44 was 5 μg/mL. MIC values were determined by the methods described above.

[3] = test system: MRSA strain BAA-44; test: Antibiotic MICs in the presence of Compound C; assay type: cell-based, Staphylococcus aureus; conditions: MRSA BAA-44; in the presence of 5 mg/L Compound C
Method: as §2, §3, §4, §5

[4] = test system: Staphylococcus aureus (MRSA, NRS384); test: MIC determination, broth microdilution; assay type: cell-based
Description: as §1, §2, §3, §4

[5] = test system: MRSA strain ATCC 700789; test: MIC determination, broth microdilution; assay type: cell-based, Staphylococcus aureus; conditions: MRSA strain ATCC 700789 (Table C)
Method: as §2, with “Compounds were prepared in 180 μL at 2× the intended final concentrations in MHB or BHI and 2% DMSO.” left out
as §4

[6] = test system: MRSA strain ATCC-33592; test: MIC determination, broth microdilution; assay type: cell-based, Staphylococcus aureus; conditions: MRSA strain ATCC-33592 (Table C)
Method: as §2, with “Compounds were prepared in 180 μL at 2× the intended final concentrations in MHB or BHI and 2% DMSO.” left out
as §4

[7] = test system: MRSA strain NRS-384; test: Minimal re-sensitizing concentration (MRC) determination; assay type: cell-based, Staphylococcus aureus
Method: (§6) Minimal re-sensitizing concentration (MRC) determination. Antibiotic MIC breakpoint values where S. aureus is considered susceptible were determined from the CLSI handbook supplement. MHB was supplemented with the antibiotic at a concentration two-fold greater than the CLSI susceptible MIC value. Two-fold serial dilutions of Compound C were prepared in antibiotic supplemented media in 96-well microplates. These were inoculated with MRSA diluted to OD600 0.002 and incubated at 37° C. with shaking for 18 hours before results were interpreted. The concentration of […] in antibiotic supplemented media at which there was no observable growth was considered the minimum re-sensitizing concentration (MRC).

[8] = test system: MRSA strain BAA-44; test: as above; assay type: cell-based, Staphylococcus aureus
Method: as §6

[9] = test system: MRSA strain ATCC 700789; test: as above; assay type: cell-based, Staphylococcus aureus
Method: as §6

[10] = test system: MRSA strain ATCC-33592; test: as above; assay type: cell-based, Staphylococcus aureus
Method: as §6

[11] = Staphylococcus aureus, MRSA BAA-44, in the absence of Compound C, read-out: MIC mg/L (BAA-44)
[12] = Staphylococcus aureus, MRSA NRS-384, in the absence of Compound C, read-out: MIC mg/L (NRS-384)
[13] = medium supplemented with amox/clav
[14] = medium supplemented with cefazolin

SMILES | MIC [1, 11] [mg/L] | MIC (NRS-384) (+5 mg/L Compound C) [2] [µg/mL] | MIC (BAA-44) (+5 mg/L Compound C) [3] [µg/mL] | MIC [4, 12] [mg/L] | also measured
CCC[C@@H]1C[C@@H](C(=O)N[C@@H]([C@H]2O[C@H](SC)[C@H](O)[C@@H](O)[C@H]2O)[C@H](C)Cl)N(C)C1 [Clindamycin] | > 4 | <0.03125 | >4 | 0.125 (≈ 0.294 µM) | –
CN[C@H](CC(C)C)C(=O)N[C@H]1C(=O)N[C@@H](CC(N)=O)C(=O)N[C@H]2C(=O)N[C@H]3C(=O)N[C@H](C(=O)N[C@H](C(=O)O)c4cc(O)cc(O)c4-c4cc3ccc4O)[C@H](O)c3ccc(c(Cl)c3)Oc3cc2cc(c3O[C@@H]2O[C@H](CO)[C@@H](O)[C@H](O)[C@H]2O[C@H]2C[C@](C)(N)[C@H](O)[C@H](C)O2)Oc2ccc(cc2Cl)[C@H]1O [Vancomycin] | – | 0.5 | 0.5 | – | MIC ([1]; Staphylococcus aureus, read-out: MIC mg/L (BAA-44)): 1 mg/L (≈ 0.69 µM); MIC ([4]; Staphylococcus aureus, read-out: MIC mg/L (NRS-384)): 1 mg/L (≈ 0.69 µM)
CO[C@H]1/C=C/O[C@@]2(C)Oc3c(C)c(O)c4c(O)c(c(/C=N/N5CCN(C)CC5)c(O)c4c3C2=O)NC(=O)/C(C)=C\C=C\[C@H](C)[C@H](O)[C@@H](C)[C@@H](O)[C@@H](C)[C@H](OC(C)=O)[C@@H]1C [Rifampicin] | 1 (≈ 1.22 µM) | <0.03125 | – | < 0.0312 | –
CN(C)[C@@H]1C(O)=C(C(N)=O)C(=O)[C@@]2(O)C(O)=C3C(=O)c4c(O)cccc4[C@@](C)(O)[C@H]3C[C@@H]12 [Tetracycline] | 16 (≈ 36 µM) | 4 | 4 | 8 (≈ 18 µM) | –
[H]/N=C(/N)N[C@H]1[C@H](O)[C@@H](O)[C@H](O[C@@H]2O[C@@H](C)[C@](O)(C=O)[C@H]2O[C@@H]2O[C@@H](CO)[C@H](O)[C@@H](O)[C@@H]2NC)[C@@H](N/C(N)=N\[H])[C@@H]1O [Streptomycin] | > 32 | 1 | >32 | 8 (≈ 13.8 µM) | –
Cc1onc(-c2ccccc2)c1C(=O)N[C@@H]1C(=O)N2[C@@H]1SC(C)(C)[C@@H]2C(=O)O [Oxacillin, reference compound] | 64 (≈ 159 µM) | <2 | <2 | 64 (≈ 159 µM) | –
C[C@@H](O)[C@H]1C(=O)N2C(C(=O)O)=C(S[C@@H]3CN[C@H](C(=O)N(C)C)C3)[C@H](C)[C@H]12 [Meropenem, reference compound] | 16 (≈ 41.7 µM) | <0.25 | <0.25 | 8 (≈ 20.9 µM) | –

Second part, led by results:

MIC [1, 11] [mg/L] | MIC (NRS-384) (+5 mg/L Compound C) [2] [µg/mL] | MIC (BAA-44) (+5 mg/L Compound C) [3] [µg/mL] | MIC [4, 12] [mg/L] | SMILES | also measured
> 256 | 8 | 4 | 256 (≈ 673 µM) | COc1cccc(OC)c1C(=O)N[C@@H]1C(=O)N2[C@@H]1SC(C)(C)[C@@H]2C(=O)O [Methicillin, reference compound] | –
1 (≈ 2.96 µM) | 1 | 0.5 | 2 (≈ 5.93 µM) | CC(=O)NC[C@H]1CN(c2ccc(N3CCOCC3)c(F)c2)C(=O)O1 [Linezolid] | –
128 (≈ 282 µM) | <2 | <2 | 64 (≈ 141 µM) | Cc1nnc(SCC2=C(C(=O)O)N3C(=O)[C@@H](NC(=O)Cn4cnnn4)[C@H]3SC2)s1 [Cefazolin, reference compound] | –
> 100 | – | – | > 100 | O=C(c1ccc(Cl)cc1)N1CCc2c([nH]c3ccc(Cl)cc23)C1 [Compound C] | MIC ([1]; MRSA strain BAA-44 (Table C)): 64 mg/L (≈ 185 µM); MIC ([4]; MRSA strain NRS-384 (Table C)): > 64 mg/L; MIC [5]: > 64 µg/mL; MIC [6]: 4 µg/mL (≈ 11.6 µM); MRC to Amox/clav [7, 13]: 2; MRC to Cefazolin [7, 14]: 4; MRC to Amox/clav ([8]; medium supplemented with amox/clav at two-fold greater than the CLSI susceptible MIC): 4; MRC to Cefazolin ([8]; medium supplemented with cefazolin at two-fold greater than the CLSI susceptible MIC): 4; MRC to Amox/clav [9, 13]: 4; MRC to Cefazolin [9, 14]: 4; MRC to Amox/clav [10, 13]: 2; MRC to Cefazolin [10, 14]: 2
